PMC7556269, “Metabolic Profiling of a CB2 Agonist, AM9338, Using LC-MS and Microcoil-NMR: Identification of a Novel Dihydroxy Adamantyl Metabolite” (Frontiers in Pharmacology, 2020)
Where two headings read alike, the source gives them in different places.

How the values were obtained:
[1] = Microsomal stability, human liver microsomes; assay type: in vitro ADME; parameters: half-life / microsomal CLint: dose or concentration left out as unconfirmed; details: for half-life: human, liver microsomes, pH 7.4, human liver microsomes, read-out: t1/2 (min) (Mean ± S.D.); for CLint scaled: read-out: CLint (ml/min/kg) (Mean ± S.D.)
Description: (§1) AM9338 (50 µM) was incubated at 37 °C with mouse, rat or human microsomes (0.5 mg/ml) in 50 mM potassium phosphate buffer, pH 7.4. Samples were taken immediately after the addition of NADPH (final concentration 1 mM) and again after 30 and 60 min of incubation; the reaction was terminated through protein precipitation with ice cold methanol followed by centrifugation at 4000 g for 10 min. The resulting supernatant was analyzed using LC-MS/MS.
(§2) Chromatographic separation of AM9338 and its metabolites was achieved using a Phenomenex Kinetex F5 column (4.6 × 150 mm, 100 Å pore size, 2.6 μm particle size) on a Thermo Accela HPLC (Thermo, San Jose, CA, USA) coupled to an API-4000 Q-Trap (AB Sciex, Concord, Ontario, Canada). Samples were eluted with mobile phases consisting of 0.1 % formic acid in acetonitrile (A) and 0.1 % formic acid in HPLC grade water (B) starting at 10% A for 2.6 min, ramping to 90%A over the next 9.4 min, and holding at 90%A for 2.8 min before returning to initial conditions for a total run time of 18.5 min; the flow rate was 0.8 ml/min and the autosampler and column oven were set to 4°C and 35°C, respectively. The mass spectrometer was operated in electrospray ionization (ESI) positive ion mode with the following conditions: ion spray voltage = 5,500 V; heater temperature = 550 °C; curtain gas = 20 psi; Q2 collision gas = set as high; source gas 1 (GS1) = 50 psi; source gas 2 (GS2) = 55 psi. High purity nitrogen was used as a source and collision gas and the compounds were detected in the multiple reaction monitoring (MRM) mode.
(§3) The susceptibility of AM9338 to CYP enzymes or hydrolytic enzymes was tested at 37°C in human, mouse and rat liver microsomes, in the presence or absence of NADPH. […] The disappearance of AM9338 in microsomes followed a first-order elimination kinetics with low elimination half-life (t1/2 < 4 min) and high intrinsic microsomal clearance of microsomal protein across all three species as shown in Table 1 .

[2] = Microsomal stability, mouse liver microsomes; assay type: in vitro ADME; parameters: microsomal CLint / half-life: dose or concentration left out as unconfirmed; details: for half-life: mouse, liver microsomes, pH 7.4, mouse liver microsomes, read-out: t1/2 (min) (Mean ± S.D.); for CLint scaled: read-out: CLint (ml/min/kg) (Mean ± S.D.)
Description: as §1, §2, §3

[3] = Microsomal stability, rat liver microsomes; assay type: in vitro ADME; parameters: microsomal CLint / half-life: dose or concentration left out as unconfirmed; details: for CLint scaled: read-out: CLint (ml/min/kg) (Mean ± S.D.); for half-life: rat, liver microsomes, pH 7.4, rat liver microsomes, read-out: t1/2 (min) (Mean ± S.D.)
Description: as §1, §2, §3

hCB2 = hCB2 (Homo sapiens, UniProt P34972); experiment: CB2 receptor binding affinity (hCB2); details: stated in introduction, no method or reference given
hCB2, sequence (P34972 whole entry): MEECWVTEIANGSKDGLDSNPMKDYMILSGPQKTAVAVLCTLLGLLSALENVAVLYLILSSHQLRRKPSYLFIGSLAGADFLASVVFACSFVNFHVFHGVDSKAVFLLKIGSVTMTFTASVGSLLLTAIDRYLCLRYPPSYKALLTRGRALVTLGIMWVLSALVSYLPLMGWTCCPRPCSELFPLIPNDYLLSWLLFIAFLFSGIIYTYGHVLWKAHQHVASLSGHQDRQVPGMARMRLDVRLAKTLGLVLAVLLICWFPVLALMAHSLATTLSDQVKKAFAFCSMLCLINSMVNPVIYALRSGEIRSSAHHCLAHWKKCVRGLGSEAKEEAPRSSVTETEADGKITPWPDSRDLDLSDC

mCB2 = mCB2 (Mus musculus, UniProt P47936); experiment: CB2 receptor binding affinity (mCB2); details: stated in introduction, no method or reference given
mCB2, sequence (P47936 whole entry): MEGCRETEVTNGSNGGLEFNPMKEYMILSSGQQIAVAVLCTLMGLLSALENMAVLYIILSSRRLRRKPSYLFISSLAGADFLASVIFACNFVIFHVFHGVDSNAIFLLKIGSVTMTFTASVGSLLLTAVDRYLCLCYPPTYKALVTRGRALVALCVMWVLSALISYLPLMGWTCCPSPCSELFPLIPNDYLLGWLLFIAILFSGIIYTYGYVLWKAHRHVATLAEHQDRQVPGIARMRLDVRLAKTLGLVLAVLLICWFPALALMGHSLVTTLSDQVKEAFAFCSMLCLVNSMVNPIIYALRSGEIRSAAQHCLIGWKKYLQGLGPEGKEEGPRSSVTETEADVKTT

[4] = Non-compartmental pharmacokinetics in mice after i.v. and oral dosing; assay type: in vivo; details: for bioavailability: oral 8 mg/kg vs I.V. 2 mg/kg
Description: The non-compartmental pharmacokinetic parameters following intravenous (2 mg/kg, i.v.) and oral (8 mg/kg, p.o.) dosing are presented in Table 2 .

[5] = Metabolite profile after incubation with pooled mouse liver microsomes (LC-UV/LC-MS); assay type: in vitro ADME; details: NADPH, 37°C, 60 min
Description: as §1
Reconstituted extracts from the microsomal incubations were injected on a Supelco Discovery column C18, 250 × 4.6 mm column (Millipore-Sigma, St Louis, MO) on Thermo Accela HPLC system (Thermo Fisher Scientific, Austin, TX). The column temperature was maintained at 35°C, the flow rate was 0.8 ml/min, the injection volume was 20 µl and UV detector was set at 300 nm, maximal absorbance wavelength for AM9338. […]
The metabolites M3 (trihydroxy), M4 (trihydroxy) and M8 (Ketone-hydroxyl) appear to be the metabolic end products of AM9338. […] The estimated relative percentage of each metabolite was calculated using the UV peak areas at the end of the incubation: M1 (49%), M2 (37%), M3 (1%), M4 (5%), M5 (4%), M7 (3%), M8 (1%), and M9 (2%). […] Human (HLM), Mouse (MLM) and rat liver microsomes (RLM) generated the very similar metabolite profile, with M1 and M2 being the major metabolic products, appearing in similar order of formation and relative quantities. […]

CYP3A4 = CYP3A4 (Homo sapiens, UniProt P08684); experiment: CYP phenotyping using CYP specific chemical inhibitors; assay type: in vitro ADME; details: preliminary
CYP3A4, sequence (P08684 whole entry): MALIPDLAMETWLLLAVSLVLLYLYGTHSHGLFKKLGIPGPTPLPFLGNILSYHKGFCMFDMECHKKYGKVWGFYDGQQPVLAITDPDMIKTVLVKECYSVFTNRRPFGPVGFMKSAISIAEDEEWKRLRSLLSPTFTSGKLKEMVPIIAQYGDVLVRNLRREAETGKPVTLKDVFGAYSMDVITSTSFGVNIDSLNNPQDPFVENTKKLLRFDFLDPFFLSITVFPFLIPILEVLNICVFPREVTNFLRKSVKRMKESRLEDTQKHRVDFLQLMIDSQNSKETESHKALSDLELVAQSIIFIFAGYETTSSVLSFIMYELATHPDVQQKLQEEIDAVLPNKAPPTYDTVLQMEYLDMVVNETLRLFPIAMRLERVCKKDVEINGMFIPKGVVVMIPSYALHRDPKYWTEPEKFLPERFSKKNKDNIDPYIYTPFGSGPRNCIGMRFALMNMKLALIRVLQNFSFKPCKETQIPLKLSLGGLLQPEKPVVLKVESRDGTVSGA

[6] = mouse, iv, I.V. 2 mg/kg, plasma
[7] = mouse, plasma, po, 8 mg/kg, oral 8 mg/kg

Which half-life ([1]; 37°C, presence of NADPH) does the source give for `O=C(NC12CC3CC(C1)C(O)C(C2)C3O)c1nn(CCCn2ccnn2)c2ccccc12` (stereo not shown) [M2] here?
The half-life was 30.8 ± 6.7 min.

And the CLint scaled ([1]; pH 7.4, human liver microsomes)?
Its CLint scaled is 54 ± 4 mL/min/kg.

What about the half-life ([2]; 37°C, presence of NADPH) of the same compound?
The half-life was 10.5 ± 0.64 min.

And the CLint scaled ([2]; pH 7.4, mouse liver microsomes)?
Its CLint scaled is 520 ± 54 mL/min/kg.

What about the CLint scaled ([3]; pH 7.4, rat liver microsomes) of the same compound?
Its CLint scaled is 93 ± 10 mL/min/kg.

What about the half-life ([3]; 37°C, presence of NADPH) of the same compound?
The half-life was 26.8 ± 6.6 min.

Which Ki (hCB2) does the source give for `O=C(NC12CC3CC(CC(C3)C1)C2)c1nn(CCCn2ccnn2)c2ccccc12` [AM9338, 1-(3-(1H-1,2,3-triazol-1-yl)propyl)-N-(adamantan-1-yl)-1H-indazole-3-carboxamide] here?
Its Ki is 3 nM.

What about the Ki (mCB2) of the same compound?
Its Ki is 2.3 nM.

What about the “t1/2 (min) (Mean ± S.D.)” value ([1]; human liver microsomes, 37°C, presence of NADPH) of the same compound?
The value was 3.3 ± 0.6 min.

What about the “Stability in absence of NADPH” value ([1]; human microsomes, 37°C, no NADPH, tested up to 2 h) of the same compound?
The value was “stable”.

What about the half-life ([1]; 37°C, presence of NADPH) of the same compound?
Its half-life is under 4 min.

What about the microsomal CLint ([1]; pH 7.4, human liver microsomes, presence of NADPH, read-out: CLint (µl/min/mg) (Mean ± S.D.)) of the same compound?
The microsomal CLint was 420 ± 93 µL/min/mg.

What about the “Stability in absence of NADPH” value ([2]; mouse microsomes, 37°C, no NADPH, tested up to 2 h) of the same compound?
The value was “stable”.

And the microsomal CLint ([2]; pH 7.4, mouse liver microsomes, presence of NADPH, read-out: CLint (µl/min/mg) (Mean ± S.D.))?
Its microsomal CLint is 2950 ± 282 µL/min/mg.

And the microsomal CLint ([3]; pH 7.4, rat liver microsomes, presence of NADPH, read-out: CLint (µl/min/mg) (Mean ± S.D.))?
The microsomal CLint was 830 ± 136 µL/min/mg.

And the “Stability in absence of NADPH” value ([3]; rat microsomes, 37°C, no NADPH, tested up to 2 h)?
The value was “stable”.

And the “Systemic plasma clearance as share of hepatic blood flow” value ([4]; I.V. 2 mg/kg)?
Its value is 85 % of hepatic blood flow.

And the t1/2 ([4]; I.V. 2 mg/kg, terminal half-life, 2 mg/kg)?
The t1/2 was 16.1 min.

And the AUC [4, 6]?
The AUC was 438 ng·h/mL.

And the C0 [4, 6]?
The C0 was 2110 ng/mL.

And the clearance [4, 6]?
Its clearance is 75.9 mL/min/kg.

And the AUC ([4]; mouse, oral 8 mg/kg, plasma)?
Its AUC is 267 ng·h/mL.

And the half-life ([4]; mouse, plasma, iv, 2 mg/kg, I.V. 2 mg/kg, terminal half-life)?
Its half-life is 16 min.

What about the Vd ([4]; mouse, plasma, iv, I.V. 2 mg/kg, read-out: Vd) of the same compound?
Its Vd is 1.76 L/kg.

And the Tmax ([4]; mouse, plasma, oral 8 mg/kg)?
Its Tmax is 1 h.

And the bioavailability ([4]; mouse, plasma, oral, 8 mg/kg, read-out: Bioavailability)?
Its bioavailability is about 15%.

And the Cmax [4, 7]?
The Cmax was 240 ng/mL.

And the half-life [4, 7]?
Its half-life is 113 min.

And the CL ([4]; oral 8 mg/kg)?
Its CL is 489 mL/min/kg.

And the Vd ([4]; oral 8 mg/kg)?
The Vd was 79.9 L/kg.

And the bioavailability [4]?
Its bioavailability is 15.5%.

And the “Cmax (Oral)” value ([4]; oral 8 mg/kg, plasma, 8 mg/kg)?
The value was 0.239 ± 0.230 µg/mL.

What about the “Extent of metabolism of parent” value [5] of the same compound?
The value was “almost completely metabolized”.

And the “Major CYP isoform responsible for the adamantyl oxidations” value (CYP3A4)?
Its value is “CYP3A4”.

With `O=C(NC12CC3CC(C1)C(O)C(C3)C2)c1nn(CCCn2ccnn2)c2ccccc12` (stereo not shown) [M1] as the compound, how does the half-life ([1]; 37°C, presence of NADPH) read?
The half-life was 13.1 ± 2.48 min.

What about the CLint scaled ([1]; pH 7.4, human liver microsomes) of the same compound?
The CLint scaled was 121 ± 20 mL/min/kg.

What about the half-life ([2]; 37°C, presence of NADPH) of the same compound?
The half-life was 2.02 ± 0.11 min.

What about the CLint scaled ([2]; pH 7.4, mouse liver microsomes) of the same compound?
The CLint scaled was 2730 ± 223 mL/min/kg.

What about the CLint scaled ([3]; pH 7.4, rat liver microsomes) of the same compound?
Its CLint scaled is 565 ± 4.4 mL/min/kg.

And the half-life ([3]; 37°C, presence of NADPH)?
The half-life was 4.41 ± 0.31 min.
